Article PMC10004487, “Flavonoids from the Roots of Sophora flavescens and Their Potential Anti-Inflammatory and Antiproliferative Activities” (Molecules, 2023)
Structures can show the parent of a compound that is named as a salt. Where two headings read alike, the source gives them in different places.

Key:
[1] = test system: HepG2 cells; assay: Antiproliferative MTT assay on HepG2 cell lines; assay type: cell-based, Human; conditions: read-out: IC50 (50% inhibitory concentration), antiproliferative effect, 24 and 48 h of incubation, mean ± SD of 3 tests
Protocol: Inhibitory rate (%) = [(O.DDrug − O.DBlank)/(O.DControl − O.DBlank)] ×100%. The IC50 values were calculated with probit analysis using software SPSS version 21.0.
(§1) Murine macrophages (RAW 264.7) were cultured in Dulbecco’s modified Eagle’s medium (DMEM) supplemented with the addition of 10% fetal bovine serum (FBS) and 1% streptomycin (10,000 μg/mL)-penicillin (10,000 U/mL) at 37 °C in a humidified incubator under 5% CO2. HepG2 cells were cultured at 37 °C under 5% CO2. The optimal fermentation culture medium comprised DMEM, 1% mixed penicillin (10,000 U mL^−1), 1% HEPES (BioFroxx, Hesse, Einhausen), and 10% fetal bovine serum (FBS), as well as streptomycin (SM) (10,000 μg/mL^−1) fluid. In all experiments, cells were left to acclimate for 24 h before any treatments.
Briefly, the cells were incubated in 96-well microplates (1 × 10^5 per well) and allowed to adhere for 24 h before drug administration. Then, the cell lines were treated with test compounds 1–36 at five concentrations (3.12, 6.25, 12.5, 25, and 50 μM). At 24 and 48 h of incubation, cells were treated with MTT (200 µL, 5.0 mg/mL) and dissolved in the culture medium, for 1 h under at 37 °C under a 5% CO2 humidified atmosphere. The MTT was then removed carefully and resolved with DMSO (150 μL/well). Optical density was recorded using a Thermo Fisher Scientific microplate reader at 490 nm. Cisplatin (CP) and medium were used as positive and negative controls, respectively.

[2] = test system: LPS-induced NO production in RAW 264.7 macrophages; assay: Inhibition of LPS-induced NO production in macrophages (Griess reagent); assay type: cell-based, Murine; conditions: Mus musculus, RAW264.7, read-out: IC50 (50% inhibitory concentration), NO production inhibition
Protocol: NO is one of the immune effectors used by macrophages to defend our bodies against intracellular pathogens. […] NO production inhibition (%) = [(O.DLPS − O.DDrug)/(O.DLPS − O.DBlank)] × 100%. The determination of IC50 was calculated using probit analysis in SPSS version 21.0.
as §1
Activated macrophage cells could express inducible nitric oxide synthase (iNOS), catalyzing the production of NO from L-arginine. […] Afterward, costimulation for 24 h at 37 °C was carried out in an incubator under 5% CO2. Then, Griess reagents I and II (100 μL) were mixed with cell culture medium (70 μL). Prior to measuring the optical density, plates were incubated at room temperature for 10 min, and the absorbance at 540 nm was measured using a Thermo Fisher Scientific microplate reader. N(G)-monomethyl-L-arginine, monoacetate salt (L-NMMA), and the medium were used as positive and negative controls, respectively.

[3] = Cytotoxicity on RAW 264.7 macrophages (MTT cell viability); assay type: cell-based, Murine; conditions: mouse
Protocol: The potential cytotoxicity of compounds on RAW 264.7 macrophages cells was determined before executing further studies. Macrophage cells were treated with compounds, and a mitochondria colorimetric (MTT) assay was used to test cell survival.
as §1
To measure cell viability, an MTT assay was performed. […] After washing twice with a PBS buffer, 20 μL of the MTT solution was added to each well, and incubation continued for 4 h. Optical density (O.D) was measured at 490 nm by a microplate reader (Thermo Fisher Scientific, Waltham, MA, USA). The relative cell viability was calculated in contrast to the normal control group.

[4] = RAW 264.7 pretreated with compound 1 h, then LPS 1 μg/mL for 24 h, Griess, mean ± SD of 3 tests

Compound	IC50 ([1]; Homo sapiens) [µM]	IC50 [2, 4] [µM]	CC50 [3] [µM]	other results
N.N.[Cl][Pt][Cl] [Cisplatin, reference compound]				IC50 [1]: 24.5 ± 0.8 µM
CC(C)=CCc1c(O)cc(O)c2c1O[C@H](c1ccc(O)cc1)CC2=O [Compound 1, sophorafiavanone B]	34.9 ± 0.3			
COc1cc(O)c(CC=C(C)C)c2c1C(=O)CC(c1ccc(O)cc1)O2 (stereo not shown) [Compound 2, isoxanthohumol]		8.4 ± 0.7	> 50	
CC(C)=CCc1c(O)cc(O)c2c1O[C@H](c1ccc(O)cc1O)CC2=O [Compound 5, leachianone G]	37.6 ± 0.7			
C=C(C)[C@H](CC=C(C)C)Cc1c(O)cc(OC)c2c1O[C@H](c1ccc(O)cc1O)CC2=O [Compound 13, kurarinone]		14.4 ± 0.4	33.8 ± 1	
CC(C)=CCc1c(O)c(CC=C(C)C)c2c(c1O)C(=O)C[C@@H](c1ccc(O)cc1O)O2 [Compound 15, kushenol E]		9.3 ± 0.7	18.8 ± 0.3	
C=C(C)C(CC=C(C)C)Cc1c(O)c(CC=C(C)C)c(O)c2c1O[C@H](c1ccc(O)cc1O)CC2=O (stereo partly shown) [Compound 16, kushenol B]	30.8 ± 1.1			
CC(C)=CCc1c(O)cc(O)c2c(=O)c(O)c(-c3ccc(O)cc3)oc12 [Compound 19, noranhyoicaritin]	41.4 ± 0.6	12.4 ± 0.9	> 50	
COc1ccc(-c2oc3c(CC=C(C)C)c(O)cc(O)c3c(=O)c2O)cc1O [Compound 21, 8-(3,3-dimethylallyl)-tamarixetin]	26.4 ± 0.3			
C=C(C)C(CC=C(C)C)Cc1c(O)cc(O)c2c(=O)c(O)c(-c3ccc(O)cc3)oc12 (stereo not shown) [Compound 22, 8-lavandulylkaempferol]	0.46 ± 0.1	5.7 ± 0.4	13.8 ± 0.6	
C=C(C)[C@H](CC=C(C)C)Cc1c(O)cc(OC)c2c1O[C@H](c1ccc(O)cc1O)[C@@H](O)C2=O [Compound 29, kushenol I]		7.2 ± 0.6	20.6 ± 1.1	
[H]/N=C(/NC)NCCC[C@H](N)C(=O)O [L-NMMA, N(G)-monomethyl-L-arginine, monoacetate salt, reference compound]				IC50 [2]: 21.8 ± 0.9 µM; CC50 ([3]; RAW 264.7 macrophages, MTT, compound 1 h then LPS 1 μg/mL 24 h, mean ± SD of 3 tests): > 50 µM
xanthogalenol [Compound 34]				IC50 [1]: 48.6 ± 0.8 µM
